Among the test systems are A498 renal; SNB-19 CNS; HCT-15 colon; TK-10 renal; NCI-H23 lung; A549 NSCLC; MALME-3M melanoma; RPMI-8226 leukemia; NCI-H522 lung.
Experiment in all cases: NCI-60 cell line screen, 48 h

This passage reports TGI results from PubChem BioAssay (NCI).

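All cell lines were grown in 96-well plates and treated with compound for 48 hours. TGI denotes the concentration required for complete inhibition of growth.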

As to `O/N=C1/CCCC/C1=C\c1ccc(Cl)c(Cl)c1`, the TGI in the assay with A498 renal was 84.5 µM; with SNB-19 CNS, 91.6 µM; with HCT-15 colon, greater than 100 µM; in the assay with TK-10 renal it was greater than 100 µM; in the assay with NCI-H23 lung, greater than 100 µM; in the assay on A549 NSCLC it was greater than 100 µM.

On to `O=CN/C=C/c1ccccc1`, for which the TGI with MALME-3M melanoma, in the assay with RPMI-8226 leukemia, in the assay on NCI-H522 lung, with A498 renal, in the assay with SNB-19 CNS and with HCT-15 colon was greater than 100 µM throughout. For the same compound, the TGI in the assay with TK-10 renal, with NCI-H23 lung and in the assay with A549 NSCLC was greater than 100 µM throughout.

With `C[C@@H]1CC[C@@]2(C)OC(c3ccccc3)[C@H](CO)N2C1=O` (stereo partly specified), the TGI in the assay on MALME-3M melanoma, with RPMI-8226 leukemia, in the assay on A498 renal, with SNB-19 CNS, with HCT-15 colon and in the assay on TK-10 renal was greater than 100 µM throughout. In addition, the TGI in the assay with NCI-H23 lung and in the assay with A549 NSCLC was greater than 100 µM each time.

With `O=S1Nc2cccc(C(F)(F)F)c2S1` (stereo unspecified), the TGI in the assay with MALME-3M melanoma was greater than 100 µM; in the assay on RPMI-8226 leukemia it was greater than 100 µM; in the assay with NCI-H522 lung, greater than 100 µM; in the assay on A498 renal it was 97.3 µM; in the assay on SNB-19 CNS, greater than 100 µM; with HCT-15 colon it was 43 µM. Besides, the TGI in the assay with TK-10 renal, with NCI-H23 lung and in the assay with A549 NSCLC was greater than 100 µM in each case.

Regarding `O=C1CCCc2ccc([N+](=O)[O-])c(O)c21`, the TGI with MALME-3M melanoma, in the assay with NCI-H522 lung, with A498 renal, in the assay with SNB-19 CNS, in the assay with HCT-15 colon and in the assay with TK-10 renal was greater than 100 µM each time. In addition, the TGI with NCI-H23 lung and in the assay with A549 NSCLC was greater than 100 µM each time.

For `CC1OC(n2cc(F)c(=O)[nH]c2=O)CCC1=O` (stereo unspecified), the TGI in the assay on MALME-3M melanoma, in the assay on RPMI-8226 leukemia, with NCI-H522 lung, in the assay on A498 renal, in the assay on SNB-19 CNS and in the assay with HCT-15 colon was greater than 100 µM each time. Besides, the TGI with TK-10 renal and in the assay with A549 NSCLC was greater than 100 µM in each case.

As to `CCOC(=O)NC(=O)c1cn(CCSCCOC(=O)NCCCCCCNC(=O)OCCSCCn2cc(C(=O)NC(=O)OCC)c(=O)n(C)c2=O)c(=O)n(C)c1=O`, the TGI in the assay with MALME-3M melanoma was 72.2 µM; with RPMI-8226 leukemia it was 66.8 µM; with SNB-19 CNS, greater than 100 µM; with HCT-15 colon, greater than 100 µM; in the assay with TK-10 renal, greater than 100 µM; in the assay with NCI-H23 lung, greater than 100 µM. The compound also gave a TGI in the assay with A549 NSCLC greater than 100 µM.

Turning to `COc1ccc2cc3c4cc(OC)c(OC)cc4ccn3c2c1`, the TGI with MALME-3M melanoma, with NCI-H522 lung, with A498 renal, in the assay with SNB-19 CNS, in the assay on TK-10 renal and with NCI-H23 lung was greater than 100 µM each time. In the assay on A549 NSCLC, this compound yielded a TGI greater than 100 µM.

As to `O=C(O)c1cnc2c(ccc3[nH]cccc32)c1=O`, the TGI in the assay on MALME-3M melanoma, in the assay with NCI-H522 lung, with A498 renal, in the assay on SNB-19 CNS, in the assay with HCT-15 colon and with TK-10 renal was greater than 100 µM in each case. The TGI with NCI-H23 lung and in the assay with A549 NSCLC was greater than 100 µM in each case.

Turning to `COc1ccc(C2(Cl)C(Cl)(C(F)(F)F)C2(Cl)C(F)(F)F)cc1` (stereo unspecified), the TGI with RPMI-8226 leukemia came to 34.8 µM; in the assay on SNB-19 CNS it was 29.1 µM; with HCT-15 colon, 29.6 µM; in the assay on TK-10 renal, 32 µM; in the assay with NCI-H23 lung, 27.8 µM; in the assay with A549 NSCLC, 28.1 µM.

Regarding `C=CCCn1nc(-c2ccccc2)oc1=O`, the TGI in the assay on MALME-3M melanoma, in the assay on NCI-H522 lung, in the assay with A498 renal, in the assay on SNB-19 CNS, in the assay on HCT-15 colon and in the assay on TK-10 renal was greater than 100 µM each time. Besides, the TGI in the assay on NCI-H23 lung and in the assay with A549 NSCLC was greater than 100 µM in each case.

In the case of `C=CC12CCCCC1CC(C(=O)OC)=C(O)C2` (stereo unspecified), the TGI in the assay with RPMI-8226 leukemia, in the assay on NCI-H522 lung, in the assay with SNB-19 CNS, with TK-10 renal, with NCI-H23 lung and in the assay with A549 NSCLC was greater than 100 µM in each case.

On to `O=CCCn1[nH]c(=O)ccc1=O`, for which the TGI with MALME-3M melanoma, in the assay on RPMI-8226 leukemia, with A498 renal, in the assay with SNB-19 CNS, with HCT-15 colon and with TK-10 renal was greater than 100 µM in each case. The TGI with NCI-H23 lung and in the assay with A549 NSCLC was greater than 100 µM each time.

Turning to `Cn1cnc([N+](=O)[O-])c1Sc1n[nH]c(-c2ccc(Cl)cc2)n1`, the TGI in the assay on MALME-3M melanoma is 26.4 µM; in the assay on RPMI-8226 leukemia, 87.7 µM; with NCI-H522 lung, 24.9 µM; in the assay with A498 renal, 56.1 µM; in the assay on SNB-19 CNS, 51 µM; with TK-10 renal, 43.8 µM. The TGI in the assay with NCI-H23 lung came out at 37.9 µM; in the assay on A549 NSCLC, 77.8 µM.
